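48-hour exposure; five concentrations; linearly interpolated endpoints. TGI marks complete inhibition of growth.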
Columns and labels:
Experiment in all cases: growth of human tumour cells (NCI), 48 h
UACC-257 melanoma = test system: UACC-257 melanoma
CAKI-1 renal = test system: CAKI-1 renal
HCT-116 colon = test system: HCT-116 colon
MDA-N = test system: MDA-N
COLO 205 colon = test system: COLO 205 colon
K-562 leukemia = test system: K-562 leukemia
OVCAR-5 ovarian = test system: OVCAR-5 ovarian
HT29 colon = test system: HT29 colon
T-47D breast = test system: T-47D breast
MDA-MB-435 = test system: MDA-MB-435
UACC-62 melanoma = test system: UACC-62 melanoma
SK-OV-3 ovarian = test system: SK-OV-3 ovarian
SK-MEL-5 melanoma = test system: SK-MEL-5 melanoma
PC-3 prostate = test system: PC-3 prostate
SNB-75 CNS = test system: SNB-75 CNS
HS 578T breast = test system: HS 578T breast
BT-549 breast = test system: BT-549 breast
M14 melanoma = test system: M14 melanoma
OVCAR-8 ovarian = test system: OVCAR-8 ovarian
786-0 renal = test system: 786-0 renal
A549 NSCLC = test system: A549 NSCLC
UO-31 renal = test system: UO-31 renal
NCI-H522 lung = test system: NCI-H522 lung
NCI/ADR-RES ovarian = test system: NCI/ADR-RES ovarian
OVCAR-4 ovarian = test system: OVCAR-4 ovarian
ACHN renal = test system: ACHN renal
SW-620 colon = test system: SW-620 colon
HL-60(TB) leukemia = test system: HL-60(TB) leukemia
HOP-92 NSCLC = test system: HOP-92 NSCLC
SN12C renal = test system: SN12C renal
MALME-3M melanoma = test system: MALME-3M melanoma
SF-268 CNS = test system: SF-268 CNS
IGROV1 ovarian = test system: IGROV1 ovarian
MCF7 breast = test system: MCF7 breast
KM12 colon = test system: KM12 colon
SF-295 CNS = test system: SF-295 CNS
TK-10 renal = test system: TK-10 renal
MDA-MB-231 breast = test system: MDA-MB-231 breast
SF-539 CNS = test system: SF-539 CNS
EKVX NSCLC = test system: EKVX NSCLC
NCI-H460 lung = test system: NCI-H460 lung
RXF 393 renal = test system: RXF 393 renal
CCRF-CEM leukemia = test system: CCRF-CEM leukemia
A498 renal = test system: A498 renal
NCI-H23 lung = test system: NCI-H23 lung
SR leukemia = test system: SR leukemia
LOX IMVI melanoma = test system: LOX IMVI melanoma
OVCAR-3 ovarian = test system: OVCAR-3 ovarian
HCT-15 colon = test system: HCT-15 colon
HOP-62 NSCLC = test system: HOP-62 NSCLC
NCI-H226 lung = test system: NCI-H226 lung
SK-MEL-28 melanoma = test system: SK-MEL-28 melanoma
HCC-2998 colon = test system: HCC-2998 colon
MOLT-4 leukemia = test system: MOLT-4 leukemia
SK-MEL-2 melanoma = test system: SK-MEL-2 melanoma
DU-145 prostate = test system: DU-145 prostate
U251 CNS = test system: U251 CNS
SNB-19 CNS = test system: SNB-19 CNS
RPMI-8226 leukemia = test system: RPMI-8226 leukemia

In the case of `O=[N+]([O-])c1ccccc1S(=O)(=O)c1cc(O)cc2c1NCCC2`, the TGI (UACC-257 melanoma) is reported as 26.8 µM, the TGI (CAKI-1 renal) is reported as 63.3 µM and the TGI (HCT-116 colon) is reported as 20.9 µM. It also gave a TGI (MDA-N) of 38.8 µM, a TGI (COLO 205 colon) of 34.3 µM and a TGI (K-562 leukemia) of 7.54 µM. For the same compound, the TGI (OVCAR-5 ovarian) was 40 µM, the TGI (HT29 colon) was 40.9 µM and the TGI (T-47D breast) was 24.1 µM. For the same compound, the TGI (MDA-MB-435) was 41.4 µM, the TGI (UACC-62 melanoma) was 28.9 µM and the TGI (SK-OV-3 ovarian) was over 31.6 µM. The TGI (SK-MEL-5 melanoma) was 27.1 µM, the TGI (PC-3 prostate) was 28.7 µM and the TGI (SNB-75 CNS) was 33.5 µM. It also gave a TGI (HS 578T breast) of over 86.7 µM, a TGI (BT-549 breast) of 26.3 µM and a TGI (M14 melanoma) of 30.8 µM. It also gave a TGI (OVCAR-8 ovarian) of 41.6 µM, a TGI (786-0 renal) of 25.9 µM and a TGI (A549 NSCLC) of over 85.9 µM. The TGI (UO-31 renal) was 29.8 µM, the TGI (NCI-H522 lung) was 24.5 µM and the TGI (NCI/ADR-RES ovarian) was over 79.3 µM. It also gave a TGI (OVCAR-4 ovarian) of 29.3 µM, a TGI (ACHN renal) of 27.4 µM and a TGI (SW-620 colon) of 32.6 µM. It also gave a TGI (HL-60(TB) leukemia) of over 23 µM, a TGI (HOP-92 NSCLC) of 16.8 µM and a TGI (SN12C renal) of 41.5 µM. The TGI (MALME-3M melanoma) was 37.9 µM, the TGI (SF-268 CNS) was 42.6 µM and the TGI (IGROV1 ovarian) was 30.8 µM. For the same compound, the TGI (MCF7 breast) was 29.8 µM, the TGI (KM12 colon) was 34.3 µM and the TGI (SF-295 CNS) was over 59.1 µM. For the same compound, the TGI (TK-10 renal) was 36.7 µM, the TGI (MDA-MB-231 breast) was 32.4 µM and the TGI (SF-539 CNS) was 34.8 µM. It also gave a TGI (EKVX NSCLC) of 30.7 µM, a TGI (NCI-H460 lung) of 53 µM and a TGI (RXF 393 renal) of 31.7 µM. For the same compound, the TGI (CCRF-CEM leukemia) was 5.6 µM, the TGI (A498 renal) was 18.4 µM and the TGI (NCI-H23 lung) was 49 µM. The TGI (SR leukemia) was 5.37 µM, the TGI (LOX IMVI melanoma) was 38.4 µM and the TGI (OVCAR-3 ovarian) was 18.1 µM. It also gave a TGI (HCT-15 colon) of 44.4 µM, a TGI (HOP-62 NSCLC) of 40.3 µM and a TGI (NCI-H226 lung) of 62.8 µM. The TGI (SK-MEL-28 melanoma) was 33.9 µM, the TGI (HCC-2998 colon) was 51.1 µM and the TGI (MOLT-4 leukemia) was 13.6 µM. For the same compound, the TGI (SK-MEL-2 melanoma) was 51.7 µM, the TGI (DU-145 prostate) was 35.7 µM and the TGI (U251 CNS) was 40.1 µM. It also gave a TGI (SNB-19 CNS) of 65.6 µM.
For `C/C(=N\O)c1ccc(Nc2nc3ccccc3c3occc23)cc1`, the TGI (UACC-257 melanoma) was 48.2 µM, the TGI (CAKI-1 renal) was 7.28 µM and the TGI (HCT-116 colon) was 18 µM. For the same compound, the TGI (MDA-N) was 96.6 µM, the TGI (COLO 205 colon) was 20 µM and the TGI (K-562 leukemia) was 6.04 µM. The TGI (OVCAR-5 ovarian) was over 100 µM, the TGI (HT29 colon) was 2.68 µM and the TGI (T-47D breast) was 32.7 µM. For the same compound, the TGI (MDA-MB-435) was 44.9 µM, the TGI (UACC-62 melanoma) was 61 µM and the TGI (SK-OV-3 ovarian) was 57.4 µM. For the same compound, the TGI (SK-MEL-5 melanoma) was 35.1 µM, the TGI (PC-3 prostate) was 50.7 µM and the TGI (HS 578T breast) was 53.3 µM. It also gave a TGI (BT-549 breast) of 53.1 µM, a TGI (M14 melanoma) of 22.4 µM and a TGI (OVCAR-8 ovarian) of 54.7 µM. It also gave a TGI (786-0 renal) of 9.93 µM, a TGI (A549 NSCLC) of 34.8 µM and a TGI (UO-31 renal) of over 100 µM. The TGI (NCI-H522 lung) was 9.47 µM, the TGI (NCI/ADR-RES ovarian) was 47.8 µM and the TGI (ACHN renal) was 47.7 µM. It also gave a TGI (HL-60(TB) leukemia) of 8.49 µM, a TGI (HOP-92 NSCLC) of 52.4 µM and a TGI (SN12C renal) of 56.3 µM. For the same compound, the TGI (MALME-3M melanoma) was 61.3 µM, the TGI (SF-268 CNS) was 39.9 µM and the TGI (IGROV1 ovarian) was 29.6 µM. It also gave a TGI (MCF7 breast) of 14.8 µM, a TGI (KM12 colon) of 20.8 µM and a TGI (SF-295 CNS) of 11.1 µM. For the same compound, the TGI (TK-10 renal) was 7.63 µM, the TGI (MDA-MB-231 breast) was 8.22 µM and the TGI (SF-539 CNS) was 37.1 µM. The TGI (EKVX NSCLC) was over 100 µM, the TGI (NCI-H460 lung) was 4.34 µM and the TGI (CCRF-CEM leukemia) was 27.7 µM. It also gave a TGI (A498 renal) of 37.8 µM, a TGI (NCI-H23 lung) of 62.4 µM and a TGI (SR leukemia) of 5.07 µM. The TGI (LOX IMVI melanoma) was 32.8 µM, the TGI (OVCAR-3 ovarian) was over 100 µM and the TGI (HCT-15 colon) was 7.77 µM. It also gave a TGI (HOP-62 NSCLC) of 27 µM, a TGI (NCI-H226 lung) of 10.8 µM and a TGI (HCC-2998 colon) of 20.8 µM. It also gave a TGI (MOLT-4 leukemia) of 13.6 µM, a TGI (SK-MEL-2 melanoma) of 51.5 µM and a TGI (RPMI-8226 leukemia) of 6.62 µM. The TGI (DU-145 prostate) was 35.6 µM, the TGI (U251 CNS) was over 100 µM and the TGI (SNB-19 CNS) was over 100 µM.
In the case of `O=C1Nc2ccccc2C1=Nc1ccc(S(=O)(=O)Nc2nccs2)cc1`, the TGI (UACC-257 melanoma) is reported as over 100 µM, the TGI (CAKI-1 renal) is reported as over 100 µM and the TGI (HCT-116 colon) is reported as over 100 µM. The TGI (MDA-N) was over 100 µM, the TGI (COLO 205 colon) was over 100 µM and the TGI (K-562 leukemia) was over 100 µM. It also gave a TGI (OVCAR-5 ovarian) of over 100 µM, a TGI (HT29 colon) of over 100 µM and a TGI (T-47D breast) of over 100 µM. The TGI (MDA-MB-435) was over 100 µM, the TGI (UACC-62 melanoma) was over 100 µM and the TGI (SK-OV-3 ovarian) was over 100 µM. For the same compound, the TGI (SK-MEL-5 melanoma) was over 100 µM, the TGI (PC-3 prostate) was over 100 µM and the TGI (SNB-75 CNS) was over 100 µM. The TGI (HS 578T breast) was over 100 µM, the TGI (BT-549 breast) was over 100 µM and the TGI (M14 melanoma) was over 100 µM. The TGI (OVCAR-8 ovarian) was over 100 µM, the TGI (786-0 renal) was over 100 µM and the TGI (A549 NSCLC) was over 100 µM. For the same compound, the TGI (UO-31 renal) was over 100 µM, the TGI (NCI-H522 lung) was over 100 µM and the TGI (NCI/ADR-RES ovarian) was over 100 µM. The TGI (OVCAR-4 ovarian) was over 100 µM, the TGI (ACHN renal) was over 100 µM and the TGI (SW-620 colon) was over 100 µM. The TGI (HL-60(TB) leukemia) was over 100 µM, the TGI (HOP-92 NSCLC) was over 100 µM and the TGI (SN12C renal) was over 100 µM. It also gave a TGI (MALME-3M melanoma) of over 100 µM, a TGI (SF-268 CNS) of over 100 µM and a TGI (IGROV1 ovarian) of over 100 µM. For the same compound, the TGI (MCF7 breast) was over 100 µM, the TGI (KM12 colon) was over 100 µM and the TGI (SF-295 CNS) was over 100 µM. The TGI (TK-10 renal) was over 100 µM, the TGI (MDA-MB-231 breast) was over 100 µM and the TGI (SF-539 CNS) was over 100 µM. The TGI (EKVX NSCLC) was over 100 µM, the TGI (NCI-H460 lung) was over 100 µM and the TGI (RXF 393 renal) was over 100 µM. The TGI (CCRF-CEM leukemia) was over 100 µM, the TGI (A498 renal) was over 100 µM and the TGI (NCI-H23 lung) was over 100 µM. It also gave a TGI (SR leukemia) of over 100 µM, a TGI (LOX IMVI melanoma) of over 100 µM and a TGI (OVCAR-3 ovarian) of over 100 µM. The TGI (HCT-15 colon) was over 100 µM, the TGI (HOP-62 NSCLC) was over 100 µM and the TGI (NCI-H226 lung) was over 100 µM. It also gave a TGI (SK-MEL-28 melanoma) of over 100 µM, a TGI (HCC-2998 colon) of over 100 µM and a TGI (MOLT-4 leukemia) of over 100 µM. The TGI (SK-MEL-2 melanoma) was over 100 µM, the TGI (DU-145 prostate) was over 100 µM and the TGI (U251 CNS) was over 100 µM. For the same compound, the TGI (SNB-19 CNS) was over 100 µM.
